In experiment [1] the test system is tobacco plants of the varieties NN and Bel3. Put plainly: Symptoms of leaf tissues after infiltration into the mesophyl (depigmentation/chlorosis, fluorescence under UV light). It is filed as in vivo, Nicotiana tabacum. As for the experimental part:
The treatment has been applied on the one hand to the whole plants and on the other hand to cellular suspensions, the varieties of the plants used being: • the variety Nicotiana tabacum cv. Samsun NN designated by NN • the variety Nicotiana tabacum cv. Bel3 designated by Bel3
First, the plants of the varieties NN and Bel 3 as such were treated using aqueous compositions comprising respectively the fractions H11-C1 and H11-S at the concentration of 200 mg/l, which is, as indicated hereabove, the optimum dosis for the elicitor activity of unsulfated glucans.
The treatment consists in the infiltration of the above said aqueous compositions based on the fractions H11-C1 and H11-S into the mesophyl of the leaves of the treated plants.
The infiltration is carried out by piercing tobacco leaves using a needle and by applying then perpendicularly with respect to the plane of the leave a syringe containing the solution to be injected. Immediately after the injection, the infiltration zone, visible by illumination of the leave from its lower face, is delimitated using a felt type pen. The infiltrated zone is designated by ZI.
(§1) In another line of tests or experiences, the varieties NN and Bel3 have been treated with inducing compositions presenting respectively the concentrations of 0.5 and then of 5, of 20, of 50, of 200 and of 1,000 mg/l in H11-S and H11-C2 and the expression of the PR1 and PR2 acidic proteins in the case of the said varieties NN and Bel3 have been analysed.

The subject of experiment [2] is PR proteins (families PR1, PR2, PR3 and PR5, acidic and alkaline isoforms). Kind of experiment: Expression of PR proteins in infiltrated tobacco leaves by immunodetection. It counts as in vivo, Nicotiana tabacum. As for the experimental part:
Concerning the PR proteins, the expression of the acidic and of the alkaline isoforms of 4 families of these proteins, i.e. the families PR1, PR2, PR3 and PR5 has been analysed in the case of tobacco plants of the varieties NN and Bel3 infiltrated with compositions based on the fractions H11-C1 and H11-S at a concentration of 200 mg/l.
The analysis of these proteins has been carried out by immunodetection as disclosed in the publication in the name of Costet L., Dorey S., Fritig B. and Kauffmann S., published under the title: • “A pharmacological approach to test the diffusible signal activity of reactive oxygen intermediates in elicitor-treated tobacco leaves”, in Plant Cell and Physiology (2002) 43; 91-98.
The intensity of the induction appears on the tracks 1 to 8 by way of spots more or less pronounced.
The samples of infiltrated tissues on which the treatments illustrated by track 9 of FIG. 3 were made, were carried out 3 days after the infiltration treatment.
as §1
That expression of the acidic PR1 and PR2 proteins is materialised by the intensity of the spots, which appear on the tracks 10, 11, 12, 13, and which are the result of the determination by immunodetection.

Experiment [3] deals with OMT activity (orthodiphenol-O-methyltransferases). Kind of experiment: OMT activity in infiltrated tobacco leaves. It is filed as in vivo, Nicotiana tabacum. Conditions: for stimulation of the OMT activity: 200 mg/l; for OMT activity relative to that obtained with H11-C2: 500 mg/l. An excerpt: Measurement was also made of the OMT activity induced by the compositions based on the fractions H11-C1 and H11-S.
For the measurement of that activity, procedure was as disclosed by Costet L., Dorey S., Fritig B. and Kauffmann S in the publication here above identified and published under the title: • “A pharmacological approach to test the diffusible signal activity of reactive oxygen intermediates in […] tobacco leaves”, in Plant Cell and Physiology (2002) 43; 91-98.
The latter show the stimulation of the OMT activity, expressed in pkat/g FP (i.e. in picokatal per gram of fresh product FP, in other words of fresh vegetable material), by infiltration with water as control (reference C), then with the compositions based on H11-C1 and H11-S, the plants treated being again the varieties NN and Bel3.
The OMT activity has also been measured after infiltration of the varieties NN and Bel3 with the same compositions.
In another line of tests, the varieties NN and Bel3 have been treated with the same inducing compositions presenting respectively the concentrations of 0.5 and then of 5, of 50, of 200 and of 500 mg/l in H11-S and H11-C and the OMT activity in the case of the varieties NN and Bel3 has been analysed.
FIGS. 8 and 9 show the values of stimulation of the OMT activity (expressed in pkat/g FP) respectively in the case of the varieties NN and Bel3.

Experiment [4] relates to salicylic acid. Put plainly: Accumulation of total salicylic acid in infiltrated tissues. It counts as in vivo, Nicotiana tabacum. Conditions: variety Bel3, tissues sampled 3 days after infiltration (FIG. 5). The source says:
(§2) The stimulation, after infiltration with the here above defined compositions H11-C and H11-S of the accumulation of salicylic acid and of scopoletin in the varieties NN and Bel3 was then examined.
(§3) The results of these experiences appear on FIGS. 5 and 6, which respectively show the accumulation—expressed in μg respectively of salicylic acid and of scopoletin per gram of infiltrated tissues—of the total salicylic acid (free and conjugated forms) and of the total scopoletin (free and conjugated forms) determined on tissues on the varieties NN and Bel3 infiltrated as indicated here above on the one hand with water (C) as a control and on the other hand with compositions based on the fractions H11-C1 and H11-S containing respectively 200 mg/l of these fractions, the infiltrated tissues being sampled 3 days after the infiltration treatment.

The test system of experiment [5] is scopoletin. Kind of experiment: Accumulation of total scopoletin in infiltrated tissues. Conditions: variety Bel3, tissues sampled 3 days after infiltration (FIG. 6). It counts as in vivo, Nicotiana tabacum.
Excerpt: as §2, §3

Experiment [6] concerns signalisation pathways of salicic acid and of ethylene. Put plainly: Complementary experiences on signalisation pathways. It is filed as in vivo.
For experiment [7], the system named is cellular suspension of Nicotiana tabacum cv. Bright Yellow. Put plainly: Alkalinisation test of the extracellular medium on cellular suspension. Conditions: after 10 minutes; 160 μl of 10 g/l composition added to 8 ml suspension, final concentration about 200 mg/l. It counts as cell-based. As for the experimental part: The cellular suspensions here above mentioned are suspensions obtained starting from the vegetal tissue of Nicotiana tabacum cv. Bright Yellow.
One of these experiences is consisting of the so-called alkalinisation test of the extracellular medium and the other of the so-called test of the refractory state.
In the case of the first test, the latter is carried out on a cellular suspension obtained starting from vegetable tissues of the variety Bright Yellow. To three 8 ml samples of that cellular suspension were added respectively 160 μl of three aqueous compositions respectively containing 10 g/l of the fractions H11-C1, I25 (oligofucanes) and H11-S, the final concentration in each of the oligosaccharides being equal to […].

The test system of experiment [8] is agronomically useful plants. Put plainly: Stimulation of natural defence reactions of plants by liquid compositions (general statements). It counts as in vivo. Conditions: in practice.

“Also recorded” adds a separate entry of the source. Where only a bound is given, the exact number is not on record here.

Regarding laminarin sulfate [H11-S], in experiment [1] (200 mg/l, infiltrated tissues), the “fluorescence under U.V. light at the level of infiltrated tissues” value is “a blue fluorescence under U.V. light is observed”. The “symptoms of chlorosis as a function of concentration” value in experiment [1] (0.5, 5, 20, 50, 200 and 1,000 mg/l, varieties NN and Bel3) was “the more the symptoms of chlorosis are severe”. For the same substance, the “symptoms of the infiltrated tissues” value in experiment [1] (aqueous composition 200 mg/l infiltrated into leaf mesophyl, varieties NN and Bel3) was “present a depigmentation”. In addition, the “dose at which first symptoms of fluorescence under UV light are obtained” value in experiment [1] (concentration series 0.5 to 1,000 mg/l) stood at 50 mg/L. Further, in experiment [2] (200 mg/l, varieties NN and Bel3, H11-S compared with H11-C1 (FIG. 1)), the “expression of acidic and alkaline isoforms of PR1, PR2, PR3 and PR5 proteins” value was “more important; also recorded: stronger”. For the same substance, in experiment [2] (200 mg/l, varieties NN and Bel3, tissues sampled 3 days after infiltration (FIG. 3)), the “expression of the acidic PR1 protein” value is recorded as “highest expression”. The “concentration from which acidic PR1 and PR2 proteins are detected” value in experiment [2] (immunodetection, concentration series 0.5 to 1,000 mg/l, varieties NN and Bel3 (FIG. 7)) was 5 to 20 mg/L. Further, the “dosis at which the maximum response of expression of the PR proteins is reached” value in experiment [2] (varieties NN and Bel3) is 500 mg/L. In addition, the “stimulation of the OMT activity” value in experiment [3] (varieties NN and Bel3, compared among C, H11-C1, H11-C2, H11-C3, H11-S, H16 (FIG. 4)) is on record as “clearly better”; in experiment [3] (variety Bel3, H11-S versus H11-C1 (FIG. 2)) it was “clearly more intense”; in experiment [3] (variety NN, H11-S versus H11-C1 (FIG. 2)) it was “similar”. In addition, in experiment [3] (0.5, 5, 50, 200 and 500 mg/l, varieties NN and Bel3 (FIGS. 8 and 9)), the “increase of OMT activity as a function of the concentration” value is reported as “much faster”. Further, the results for the “OMT activity relative to that obtained with H11-C2” value in experiment [3] (variety Bel3) and in experiment [3] (variety NN) were “about ten” and “about four”, respectively. The “factor by which the concentration can be lower than that of H11-C1, H11-C2 and H11-C3 for a comparable OMT result” value in experiment [3] (conclusion from FIG. 4) is reported as “eight”. Further, the “dosis at which the maximum response of OMT activity is reached” value in experiment [3] (varieties NN and Bel3) is 500 mg/L. In addition, the “factor by which the concentration can be lower for OMT stimulation equal to H11-C1 at 200 mg/l” value in experiment [3] (variety Bel3, forecast from FIG. 2) fell in the range of 8 to 9 times. The “ratio of the concentrations (H11-C1 at 200 mg/l versus H11-S) giving the same accumulation of salicylic acid” value in experiment [4] is on record as ≤ 30. In experiment [5], the “ratio of the concentrations (H11-C1 at 200 mg/l versus H11-S) giving the same accumulation of scopoletin” value is recorded as ≤ 30. Further, in experiment [6], the “induction of signalisation pathways” value was “induce the signalisation pathways of salicic acid and of ethylene”. Besides, the “alkalinisation of the medium” value in experiment [7] came to 0.3 pH units. Further, the “concentration above which no better result is provided” value in experiment [8] is reported as “higher than 500 mg/l”.

These data come from patent US6979665B2, “Agent for stimulation of the natural defences of plants and methods for using it” (Laboratoires Goemar S.A., priority 2002, dated 2005).
